These results are taken from patent US7399775B2, “β-amyloid protein production/secretion inhibitor” (Daiichi Pharmaceutical Co., Ltd., priority 2001, dated 2008).

Each structure is given as a SMILES string.

The melting point is the temperature, or range, at which the solid turns liquid. In turn, `O=C(OCCC(c1cc(F)ccc1F)S(=O)(=O)c1ccc(Cl)cc1)N1CCOCC1` (stereo not drawn) [Example 211, 3-[(4-Chlorophenyl)sulfonyl]-3-(2,5-difluorophenyl)propyl=4-morpholinecarboxylate] came in with a melting point of 140 to 141 °C.

As for `O=C(OCCC(c1cc(F)ccc1F)S(=O)(=O)c1ccc(Cl)cc1)N1CCN(c2ccccc2)CC1` (stereo not drawn) [Example 212, 3-[(4-Chlorophenyl)sulfonyl]-3-(2,5-difluorophenyl)propyl=4-phenyl1-piperazinecarboxylate], the melting point fell in the range of 127 to 129 °C.

For `NC(=O)OCCC(c1cc(F)ccc1F)S(=O)(=O)c1ccc(Cl)cc1` (stereo not drawn) [Example 214, 3-[(4-Chlorophenyl)sulfonyl]-3-(2,5-difluorophenyl)propyl=carbamate], the melting point was 139 to 140 °C.

`O=S(=O)(c1ccc(Cl)cc1)C(Cc1ccccc1)c1cc(F)ccc1F` (stereo not drawn) [Example 217, 2-[1-[(4-Chlorophenyl)sulfonyl]-2-phenylethyl]-1,4-difluorobenzene]: the melting point was in the range of 160 to 161 °C.

In turn, `O=S(=O)(c1ccc(Cl)cc1)C(Cc1ccccn1)c1cc(F)ccc1F` (stereo not drawn) [Example 218, 2-[2-[(4-Chlorophenyl)sulfonyl]-2-(2,5-difluorophenyl)ethyl]pyridine] had a melting point of 105 to 107 °C.

As for `O=S(=O)(c1ccc(Cl)cc1)C(Cc1cccnc1)c1cc(F)ccc1F` (stereo not drawn) [Example 219, 3-[2-[(4-Chlorophenyl)sulfonyl]-2-(2,5-difluorophenyl)ethyl]pyridine], the melting point fell in the range of 162 to 163 °C.

`O=S(=O)(c1ccc(Cl)cc1)C(Cc1ccncc1)c1cc(F)ccc1F` (stereo not drawn) [Example 220, 4-[2-[(4-Chlorophenyl)sulfonyl]-2-(2,5-difluorophenyl)ethyl]pyridine] came in with a melting point of 129 °C.

In turn, `CCOC(=O)NCCC(c1cc(F)ccc1F)S(=O)(=O)c1ccc(Cl)cc1` (stereo not drawn) [Example 222, Ethyl N-[3-[(4-chlorophenyl)sulfonyl]-3-(2,5-difluorophenyl)propyl]carbamate] had a melting point of 121 to 122 °C.

For the compound `O=C(NCCCC(c1cc(F)ccc1F)S(=O)(=O)c1ccc(Cl)cc1)OCCI` (stereo not drawn) [Example 224, 2-Iodoethyl N-[4-[(4-chlorophenyl)sulfonyl]-4-(2,5-difluorophenyl)butyl]carbamate], the melting point was 100 to 101 °C.

In turn, `O=C1OCCN1CCCC(c1cc(F)ccc1F)S(=O)(=O)c1ccc(Cl)cc1` (stereo not drawn) [Example 225, 3-[4-[(4-Chlorophenyl)sulfonyl]-4-(2,5-difluorophenyl)butyl]-2-oxazolidinone] showed a melting point of 156 to 159 °C.

`CC(C)(C)OC(=O)NCCCC(c1cc(F)ccc1F)S(=O)(=O)c1ccc(Cl)cc1` (stereo not drawn) [Example 226, t-Butyl N-[4-[(4-chlorophenyl)sulfonyl]-4-(2,5-difluorophenyl)butyl]carbamate] yielded a melting point of 119 to 120 °C.

In turn, `CS(=O)(=O)NCCCC(c1cc(F)ccc1F)S(=O)(=O)c1ccc(Cl)cc1` (stereo not drawn) [Example 230, N-[4-[(4-Chlorophenyl)sulfonyl]-4-(2,5-difluorophenyl)butyl]methanesulfonamide] yielded a melting point of 128 °C.

With `O=S(=O)(c1ccc(Cl)cc1)C(CCCCF)c1cc(F)ccc1F` (stereo not drawn) [Example 231, 2-[1-(4-Chlorophenylsulfonyl)-5-fluoropentyl]-1,4-difluorobenzene], the melting point fell in the range of 77 to 78 °C.

With `CC(C)(c1cc(F)ccc1F)S(=O)(=O)c1ccc(Cl)cc1` [Example 232, 2-[1-[(4-Chlorophenyl)sulfonyl]-1-methylethyl]-1,4-difluorobenzene], the melting point lay within 147 to 148 °C.

Take `O=S(=O)(c1ccc(Cl)cc1)C1(c2cc(F)ccc2F)CC1` [Example 233, 2-[1-[(4-Chlorophenyl)sulfonyl]cyclopropyl]-1,4-difluorobenzene]: the melting point fell in the range of 177 to 179 °C.

In the case of `O=S(=O)(c1ccc(Cl)cc1)C(c1cc(F)ccc1F)C(O)CCCCO` (stereo not drawn) [Example 235, 6-[(4-Chlorophenyl)sulfonyl]-6-(2,5-difluorophenyl)-1,5-hexanediol], the melting point lay within 108 to 109 °C.

For the compound `O=S(=O)(c1ccc(Cl)cc1)C(c1cc(F)ccc1F)C(O)CCCCO` (stereo not drawn) [Example 236, 6-[(4-Chlorophenyl)sulfonyl]-6-(2,5-difluorophenyl)-1,5-hexanediol], the melting point lay in the range of 105 to 107 °C.

In turn, `CS(=O)(=O)NCCCCC(c1cc(F)ccc1F)S(=O)(=O)c1ccc(Cl)cc1` (stereo not drawn) [Example 242, N-[5-[(4-Chlorophenyl)sulfonyl]-5-(2,5-difluorophenyl)pentyl]methanesulfonamide] came in with a melting point of 106 to 107 °C.

In turn, `CC(CCNS(C)(=O)=O)C(c1cc(F)ccc1F)S(=O)(=O)c1ccc(Cl)cc1` (stereo not drawn) [Example 244, N-[4-[(4-Chlorophenyl)sulfonyl]-4-(2,5-difluorophenyl)-3-methylbutyl]methanesulfonamide] had a melting point of 163 °C.

As for `CS(=O)(=O)NCCC(c1cc(F)ccc1F)S(=O)(=O)c1ccc(Cl)cc1` (stereo not drawn) [Example 245, N-[3-(4-Chlorophenylsulfonyl)-3-(2,5-difluorophenyl)propyl]methanesulfonamide], the melting point fell in the range of 131 to 134 °C.

The compound `O=S(=O)(c1ccc(Cl)cc1)C(C/C=C\CO)c1cc(F)ccc1F` (stereo not drawn) [Example 247, (Z)-5-[(4-Chlorophenyl)sulfonyl]-5-(2,5-difluorophenyl)-2-penten-1-ol] had a melting point of 60 to 63 °C.

The compound `O=S(=O)(c1ccc(Cl)cc1)C(C/C=C/CO)c1cc(F)ccc1F` (stereo not drawn) [Example 248, (E)-5-[(4-Chlorophenyl)sulfonyl]-5-(2,5-difluorophenyl)-2-penten-1-ol] came in with a melting point of 108 to 109 °C.

`O=S(=O)(c1ccc(Cl)cc1)C(CCSCCO)c1cc(F)ccc1F` (stereo not drawn) [Example 250, 2-[3-[(4-Chlorophenyl)sulfonyl]-3-(2,5-difluorophenyl)propylthio]ethanol]: the melting point lay within 108 to 110 °C.

Regarding `O=S(=O)(c1ccc(Cl)cc1)C1(c2cc(F)ccc2F)CCSCC1` [Example 251, 4-[(4-Chlorophenyl)sulfonyl]-4-(2,5-difluorophenyl)tetrahydrothiopyran], the melting point was 188 to 190 °C.

Regarding `O=S(=O)(c1ccc(Cl)cc1)C1(c2cc(F)ccc2F)CC[S+]([O-])CC1` (stereo not drawn) [Example 252, 4-[(4-Chlorophenyl)sulfonyl]-4-(2,5-difluorophenyl)tetrahydrothiopyran-1-on], the melting point lay within 173 to 182 °C.

As to `O=S1(=O)CCC(c2cc(F)ccc2F)(S(=O)(=O)c2ccc(Cl)cc2)CC1` [Example 253, 4-[(4-Chlorophenyl)sulfonyl]-4-(2,5-difluorophenyl)tetrahydrothiopyran-1,1-dioxide], the melting point is 204 to 206 °C.

Regarding `O=S(=O)(c1ccc(Cl)cc1)C(CC[S+]([O-])CCO)c1cc(F)ccc1F` (stereo not drawn) [Example 254, 2-[3-[(4-Chlorophenyl)sulfonyl]-3-(2,5-difluorophenyl)propylsulfinyl]ethanol], the melting point was in the range of 124 to 132 °C.

Consider `O=S(=O)(CCO)CCC(c1cc(F)ccc1F)S(=O)(=O)c1ccc(Cl)cc1` (stereo not drawn) [Example 255, 2-[3-[(4-Chlorophenyl)sulfonyl]-3-(2,5-difluorophenyl)propylsulfonyl]ethanol], for which the melting point is 111 to 113 °C.

In turn, `CC(C)(C)OC(=O)N1CCC(c2cc(F)ccc2F)(S(=O)(=O)c2ccc(Cl)cc2)CC1` [Example 259, t-Butyl 4-[(4-chlorophenyl)sulfonyl]-4-(2,5-difluorophenyl)-1-piperidinecarboxylate] returned a melting point of 101 to 106 °C.

The compound `CN1CCC(c2cc(F)ccc2F)(S(=O)(=O)c2ccc(Cl)cc2)CC1` [Example 261, 4-[(4-Chlorophenyl)sulfonyl]-4-(2,5-difluorophenyl)-1-methylpiperidine] registered a melting point of 172 to 175 °C.

As for `CC(=O)N1CCC(c2cc(F)ccc2F)(S(=O)(=O)c2ccc(Cl)cc2)CC1` [Example 263, 1-[4-[(4-Chlorophenyl)sulfonyl]-4-(2,5-difluorophenyl)piperidino]-1-ethanone], the melting point is 159 to 160 °C.

As for `O=C(c1ccncc1)N1CCC(c2cc(F)ccc2F)(S(=O)(=O)c2ccc(Cl)cc2)CC1` [Example 264, [4-[(4-Chlorophenyl)sulfonyl]-4-(2,5-difluorophenyl)piperidino](4-pyridyl)methanone], the melting point fell in the range of 245 to 248 °C.

Compound `O=C(c1cccnc1)N1CCC(c2cc(F)ccc2F)(S(=O)(=O)c2ccc(Cl)cc2)CC1` [Example 265, [4-[(4-Chlorophenyl)sulfonyl]-4-(2,5-difluorophenyl)piperidino](3-pyridyl)methanone] came in with a melting point of 119 to 124 °C.

As to `O=C(c1ccccn1)N1CCC(c2cc(F)ccc2F)(S(=O)(=O)c2ccc(Cl)cc2)CC1` [Example 266, [4-[(4-Chlorophenyl)sulfonyl]-4-(2,5-difluorophenyl)piperidino](2-pyridyl)methanone], the melting point fell in the range of 193 to 196 °C.

Compound `COC(=O)N1CCC(c2cc(F)ccc2F)(S(=O)(=O)c2ccc(Cl)cc2)CC1` [Example 267, Methyl 4-[(4-chlorophenyl)sulfonyl]-4-(2,5-difluorophenyl)-1-piperidinecarboxylate] came in with a melting point of 123 to 126 °C.

Turning to `CN(C)C(=O)N1CCC(c2cc(F)ccc2F)(S(=O)(=O)c2ccc(Cl)cc2)CC1` [Example 268, N,N-dimethyl-4-[(4-chlorophenyl)sulfonyl]-4-(2,5-difluorophenyl)-1-piperidinecarboxamide], the melting point was in the range of 143 to 146 °C.

In turn, `CS(=O)(=O)N1CCC(c2cc(F)ccc2F)(S(=O)(=O)c2ccc(Cl)cc2)CC1` [Example 269, 4-[(4-Chlorophenyl)sulfonyl]-4-(2,5-difluorophenyl)-1-(methylsulfonyl)piperidine] gave a melting point of 176 to 178 °C.

Regarding `CN(C)S(=O)(=O)N1CCC(c2cc(F)ccc2F)(S(=O)(=O)c2ccc(Cl)cc2)CC1` [Example 270, N,N-Dimethyl-4-[(4-chlorophenyl)sulfonyl]-4-(2,5-difluorophenyl)-1-piperidinesulfonamide], the melting point fell in the range of 125 to 129 °C.

For `CN(C)CC(=O)N1CCC(c2cc(F)ccc2F)(S(=O)(=O)c2ccc(Cl)cc2)CC1` [Example 271, 1-[4-[(4-Chlorophenyl)sulfonyl]-4-(2,5-difluorophenyl)piperidino]-2-(dimethylamino)-1-ethanone], the melting point fell in the range of 88 to 92 °C.
